From patent EP4268824A1 (Manros Therapeutics, priority 2022, dated 2023)

Experiment: LogD determined by HPLC
Assay type: physicochemical

Going from `CC(C)c1cnc2c(NCc3ccccc3)nc(NC3CCCC[C@@H]3O)nn12` (stereo in doubt) [compound 62, (1S)-2-[[4-(Benzylamino)-7-isopropyl-imidazo[2,1-f][1,2,4]triazin-2-yl]amino]cyclohexanol] to `CC(C)c1cnc2c(NCc3ccccc3)nc(NC3CCC[C@@H]3O)nn12` (stereo partly drawn) [compound 65, (1S)-2-[[4-(Benzylamino)-7-isopropyl-imidazo[2,1-f][1,2,4]triazin-2-yl]amino]cyclopentanol], the chromatographic logD falls from 3.6 to 3.26.

Compared with `COCCNc1nc(NCc2ccccc2)c2ncc(C(C)C)n2n1` [compound 1, N4-Benzyl-7-isopropyl-N2-(2-methoxyethyl)imidazo[2,1-f][1,2,4]triazine-2,4-diamine], `CSCCNc1nc(NCc2ccccc2)c2ncc(C(C)C)n2n1` [compound 3, N4-Benzyl-7-isopropyl-N2-(2-methylsulfanylethyl)imidazo[2,1-f][1,2,4]triazine-2,4-diamine] is higher in chromatographic logD: 3.5 for the first, 4.13 for the second.

`CC(C)c1cnc2c(NCc3ccccc3)nc(NCCOc3ccccc3)nn12` [compound 2, N4-Benzyl-7-isopropyl-N2-(2-phenoxyethyl)imidazo[2,1-f][1,2,4]triazine-2,4-diamine] and `CC(C)c1cnc2c(NCc3ccccc3)nc(NCc3ccccc3)nn12` [compound 121, N2,N4-Dibenzyl-7-isopropyl-imidazo[2,1-f][1,2,4]triazine-2,4-diamine] are within 0.2 log units of each other in chromatographic logD: 4.74 for the first, 4.6 for the second.

Going from `CC(C)c1cnc2c(NCc3ccccc3)nc(NCCCN(C)C)nn12` [compound 5, N4-Benzyl-N2-[3-(dimethylamino)propyl]-7-isopropyl-imidazo[2,1-f][1,2,4]triazine-2,4-diamine] to `CC(C)c1cnc2c(NCc3ccccc3)nc(NC(C)(C)CO)nn12` [compound 18, 2-[[4-(Benzylamino)-7-isopropyl-imidazo[2,1-f][1,2,4]triazin-2-yl]amino]-2-methyl-propan-1-ol], the chromatographic logD rises from 2.1 to 3.32.

First: CC(C)c1cnc2c(NCc3ccccc3)nc(NC3CCCCC3)nn12 [compound 59, N4-Benzyl-N2-cyclohexyl-7-isopropyl-imidazo[2,1-f][1,2,4]triazine-2,4-diamine]
Second: CC(C)c1cnc2c(NCc3ccccc3)nc(NCC3CCCCC3)nn12 [compound 105, N4-Benzyl-N2-(cyclohexylmethyl)-7-isopropyl-imidazo[2,1-f][1,2,4]triazine-2,4-diamine]
The chromatographic logD of the first is lower: 5.47 for the first, 5.9 for the second.

Compared with `CC(C)c1cnc2c(NCc3ccccc3)nc(NC3CCC(F)(F)CC3)nn12` [compound 60, N4-Benzyl-N2-(4,4-difluorocyclohexyl)-7-isopropyl-imidazo[2,1-f][1,2,4]triazine-2,4-diamine], `CC(C)c1cnc2c(NCc3ccccc3)nc(NC3CCN(C)CC3)nn12` [compound 61, N4-Benzyl-7-isopropyl-N2-(1-methyl-4-piperidyl)imidazo[2,1-f][1,2,4]triazine-2,4-diamine] is lower in chromatographic logD: 4.57 for the first, 2.14 for the second.

First: CC(C)c1cnc2c(NCc3ccccc3)nc(NC3CCC(O)CC3)nn12 (centres unmarked) [compound 63, 4-[[4-(Benzylamino)-7-isopropyl-imidazo[2,1-f][1,2,4]triazin-2-yl]amino]cyclohexanol]
Second: COC1CCC(Nc2nc(NCc3ccccc3)c3ncc(C(C)C)n3n2)CC1 (centres unmarked) [compound 64, N4-Benzyl-7-isopropyl-N2-(4-methoxycyclohexyl)imidazo[2,1-f][1,2,4]triazine-2,4-diamine]
The chromatographic logD of the first is lower: 2.93 for the first, 4.48 for the second.

Going from `CC(C)c1cnc2c(NCc3cccnc3)nc(NC3CCC[C@@H]3O)nn12` (stereo partly drawn) [compound 66, (1S)-2-[[7-Isopropyl-4-(3-pyridylmethylamino)imidazo[2,1-f][1,2,4]triazin-2-yl]amino]cyclopentanol] to `CO[C@H]1CCCC1Nc1nc(NCc2cccnc2)c2ncc(C(C)C)n2n1` (stereo partly drawn) [compound 68, 7-Isopropyl-N2-[(2S)-2-methoxycyclopentyl]-N4-(3-pyridylmethyl)imidazo[2,1-f][1,2,4]triazine-2,4-diamine], the chromatographic logD rises from 2.36 to 3.04.

Going from `CO[C@H]1CCCC1Nc1nc(NCc2ccccc2)c2ncc(C(C)C)n2n1` (stereo partly drawn) [compound 67, N4-Benzyl-7-isopropyl-N2-[(2S)-2-methoxycyclopentyl]imidazo[2,1-f][1,2,4]triazine-2,4-diamine] to `CC(C)c1cnc2c(NCc3ccccc3)nc(NCC3CCN(C)CC3)nn12` [compound 104], the chromatographic logD falls from 4.25 to 2.2.

`CC(C)c1cnc2c(NCc3ccccc3)nc(N3CCC(O)C3)nn12` (centres unmarked) [compound 76, 1-[4-(Benzylamino)-7-isopropyl-imidazo[2,1-f][1,2,4]triazin-2-yl]pyrrolidin-3-ol] and `CC(C)c1cnc2c(NCc3ccccc3)nc(N3CCC(O)CC3)nn12` [compound 85, 1-[4-(Benzylamino)-7-isopropyl-imidazo[2,1-f][1,2,4]triazin-2-yl]piperidin-4-ol] are within 0.2 log units of each other in chromatographic logD: 3.16 for the first, 3.19 for the second.

`CC(C)c1cnc2c(NCc3cccnc3)nc(N3CCC(O)C3)nn12` (centres unmarked) [compound 77, 1-[7-Isopropyl-4-(3-pyridylmethylamino)imidazo[2,1-f][1,2,4]triazin-2-yl]pyrrolidin-3-ol] and `CC(C)c1cnc2c(NCc3cccnc3)nc(N3CCC(O)CC3)nn12` [compound 86, 1-[7-Isopropyl-4-(3-pyridylmethylamino)imidazo[2,1-f][1,2,4]triazin-2-yl]piperidin-4-ol] are within 0.2 log units of each other in chromatographic logD: 2.29 for the first, 2.3 for the second.

First: CC(C)c1cnc2c(NCc3ccccc3)nc(N3CC4(COC4)C3)nn12 [compound 78, N-Benzyl-7-isopropyl-2-(2-oxa-6-azaspiro[3.3]heptan-6-yl)imidazo[2,1-f][1,2,4]triazin-4-amine]
Second: CC(C)c1cnc2c(NCc3ccccc3)nc(N3CCSCC3)nn12 [compound 83, N-Benzyl-7-isopropyl-2-thiomorpholino-imidazo[2,1-f][1,2,4]triazin-4-amine]
The chromatographic logD of the first is lower: 3.42 for the first, 5.05 for the second.

`COC1CCN(c2nc(NCc3ccccc3)c3ncc(C(C)C)n3n2)C1` (centres unmarked) [compound 79, N-Benzyl-7-isopropyl-2-(3-methoxypyrrolidin-1-yl)imidazo[2,1-f][1,2,4]triazin-4-amine] and `COC1CCN(c2nc(NCc3ccccc3)c3ncc(C(C)C)n3n2)CC1` [compound 81, N-Benzyl-7-isopropyl-2-(4-methoxy-1-piperidyl)imidazo[2,1-f][1,2,4]triazin-4-amine] are within 0.2 log units of each other in chromatographic logD: 4.42 for the first, 4.6 for the second.

`COC1CCN(c2nc(NCc3cccnc3)c3ncc(C(C)C)n3n2)C1` (centres unmarked) [compound 80, 7-Isopropyl-2-(3-methoxypyrrolidin-1-yl)-N-(3-pyridylmethyl)imidazo[2,1f][1,2,4]triazin-4-amine] and `COC1CCN(c2nc(NCc3cccnc3)c3ncc(C(C)C)n3n2)CC1` [compound 82, 7-Isopropyl-2-(4-methoxy-1-piperidyl)-N-(3-pyridylmethyl)imidazo[2,1-f][1,2,4]triazin-4-amine] are within 0.2 log units of each other in chromatographic logD: 3.06 for the first, 3.15 for the second.

Going from `CC(C)c1cnc2c(NCc3cccnc3)nc(N3CCSCC3)nn12` [compound 84, 7-Isopropyl-N-(3-pyridylmethyl)-2-thiomorpholino-imidazo[2,1-f][1,2,4]triazin-4-amine] to `CC(C)c1cnc2c(NCc3ccccc3)nc(NCc3cccnc3)nn12` [compound 124, N4-Benzyl-7-isopropyl-N2-(3-pyridylmethyl)imidazo[2,1-f][1,2,4]triazine-2,4-diamine], the chromatographic logD falls from 3.5 to 3.12.

Compared with `CC(C)c1cnc2c(NCc3ccccc3)nc(N3CCCCC3CCO)nn12` (centres unmarked) [compound 87, 2-[1-[4-(Benzylamino)-7-isopropyl-imidazo[2,1-f][1,2,4]triazin-2-yl]-2-piperidyl]ethanol], `CC(C)c1cnc2c(NCc3ccccc3)nc(NCCC3CCCN3C)nn12` (centres unmarked) [compound 106, N4-Benzyl-7-isopropyl-N2-[2-(1-methylpyrrolidin-2-yl)ethyl]imidazo[2,1-f][1,2,4]triazine-2,4-diamine] is lower in chromatographic logD: 2.71 for the first, 2.16 for the second.

Compared with `CC(C)c1cnc2c(NCc3ccccc3)nc(Nc3nccn3C)nn12` [compound 109, N4-Benzyl-7-isopropyl-N2-(1-methylimidazol-2-yl)imidazo[2,1-f][1,2,4]triazine-2,4-diamine], `CC(C)c1cnc2c(NCc3ccccc3)nc(NCc3nccn3C)nn12` [compound 116, N4-Benzyl-7-isopropyl-N2-[(1-methylimidazol-2-yl)methyl]imidazo[2,1-f][1,2,4]triazine-2,4-diamine] is lower in chromatographic logD: 3.12 for the first, 2.49 for the second.

`CC(C)c1cnc2c(NCc3ccccc3)nc(Nc3cnn(C)c3)nn12` [compound 110, N4-Benzyl-7-isopropyl-N2-(1-methylpyrazol-4-yl)imidazo[2,1-f][1,2,4]triazine-2,4-diamine] and `CC(C)c1cnc2c(NCc3ccccc3)nc(NCc3cnn(C)c3)nn12` [compound 115, N4-Benzyl-7-isopropyl-N2-[(1-methylpyrazol-4-yl)methyl]imidazo[2,1-f][1,2,4]triazine-2,4-diamine] are within 0.2 log units of each other in chromatographic logD: 2.89 for the first, 2.98 for the second.

First: CC(C)c1cnc2c(NCc3ccccc3)nc(Nc3ccccc3)nn12 [compound 114, N4-Benzyl-7-isopropyl-N2-phenyl-imidazo[2,1-f][1,2,4]triazine-2,4-diamine]
Second: CC(C)c1cnc2c(NCc3ccccc3)nc(NCc3ccccn3)nn12 [compound 123, N4-Benzyl-7-isopropyl-N2-(2-pyridylmethyl)imidazo[2,1-f][1,2,4]triazine-2,4-diamine]
The chromatographic logD of the first is higher: 4.64 for the first, 3.26 for the second.

Compared with `CC(C)c1cnc2c(NCc3ccccc3)nc(NCc3ccc(F)cc3)nn12` [compound 122, N4-Benzyl-N2-[(4-Fluorophenyl)methyl]-7-isopropyl-imidazo[2,1-f][1,2,4]triazine-2,4-diamine], `CC(C)c1cnc2c(NCc3ccccc3)nc(NCc3ccncc3)nn12` [compound 125, N4-Benzyl-7-isopropyl-N2-(4-pyridylmethyl)imidazo[2,1-f][1,2,4]triazine-2,4-diamine] is lower in chromatographic logD: 4.64 for the first, 3.07 for the second.

`Cc1cnc(CNc2nc(NCc3ccccc3)c3ncc(C(C)C)n3n2)cn1` [compound 126] gave a chromatographic logD of 3.
